The results in this text go back to PMC10924921, “Mi-2β promotes immune evasion in melanoma by activating EZH2 methylation” (Nature Communications, 2024).

Common to all, as to experiment: biochemical
What all share (set-up): KINOMEscan active-site competition binding panel (468 kinase assays), per cent of control at 1000 nM
What all share (details): KINOMEscan per cent of control (binding competition); read-out: Percent Control

The target in one assay is CDK3 (Homo sapiens, UniProt Q00526). From the text: (§1) Figure S7 / Percent Control
For a further assay, the target named is HIPK2 (Homo sapiens, UniProt Q9H2X6).
From the text: as §1

Another assay has as its target T1, TRKB (Homo sapiens, UniProt Q16620).
T1 construct: gene NTRK2
From the text: as §1

The target in the next assay is EGFR(L858R) (Homo sapiens, UniProt P00533, L858R).
From the text: as §1

For the next assay, the target named is EGFR(L858R,T790M) (Homo sapiens, UniProt P00533, L858R/T790M).
From the text: as §1

The target in another assay is HUNK (Homo sapiens, UniProt P57058).
From the text: as §1

For a further assay, the target named is FGR (Homo sapiens, UniProt P09769).
From the text: as §1

A further assay concerns the target GAK (Homo sapiens, UniProt O14976).
From the text: as §1

A further assay concerns the target T2, IKK-epsilon (Homo sapiens, UniProt Q14164).
T2 construct: gene IKBKE
From the text: as §1

For a further assay, the target named is T3, HPK1 (Homo sapiens, UniProt Q92918).
T3 construct: gene MAP4K1
From the text: as §1

For another assay, the target named is SGK2 (Homo sapiens, UniProt Q9HBY8).
From the text: as §1

The next assay concerns the target T4, OSR1 (Homo sapiens, UniProt O95747).
T4 construct: gene OXSR1
From the text: as §1

The target in another assay is GSK3B (Homo sapiens, UniProt P49841).
From the text: as §1

The next assay concerns the target EGFR(G719S) (Homo sapiens, UniProt P00533, G719S).
From the text: as §1

Another assay addresses PDGFRB (Homo sapiens, UniProt P09619).
From the text: as §1

Another assay deals with T5, SIK (Homo sapiens, UniProt P57059).
T5 construct: gene SIK1
From the text: as §1

For another assay, the target named is T6, ADCK3 (Homo sapiens, UniProt Q8NI60).
T6 construct: gene COQ8A
From the text: as §1

In the next assay the target is T7, SgK110 (Homo sapiens, UniProt P0C264).
T7 construct: gene SBK3
From the text: as §1

The target in the next assay is FGFR4 (Homo sapiens, UniProt P22455).
From the text: as §1

The target of the next assay is DAPK3 (Homo sapiens, UniProt O43293).
From the text: as §1

For assay [1], the target named is T8, RSK2(Kin.Dom.1-N-terminal) (Homo sapiens, UniProt P51812).
T8 construct: gene RPS6KA3; Kin.Dom.1-N-terminal
From the text: as §1

For a further assay, the target named is CAMK1 (Homo sapiens, UniProt Q14012).
From the text: as §1

GAK, sequence (O14976 whole entry): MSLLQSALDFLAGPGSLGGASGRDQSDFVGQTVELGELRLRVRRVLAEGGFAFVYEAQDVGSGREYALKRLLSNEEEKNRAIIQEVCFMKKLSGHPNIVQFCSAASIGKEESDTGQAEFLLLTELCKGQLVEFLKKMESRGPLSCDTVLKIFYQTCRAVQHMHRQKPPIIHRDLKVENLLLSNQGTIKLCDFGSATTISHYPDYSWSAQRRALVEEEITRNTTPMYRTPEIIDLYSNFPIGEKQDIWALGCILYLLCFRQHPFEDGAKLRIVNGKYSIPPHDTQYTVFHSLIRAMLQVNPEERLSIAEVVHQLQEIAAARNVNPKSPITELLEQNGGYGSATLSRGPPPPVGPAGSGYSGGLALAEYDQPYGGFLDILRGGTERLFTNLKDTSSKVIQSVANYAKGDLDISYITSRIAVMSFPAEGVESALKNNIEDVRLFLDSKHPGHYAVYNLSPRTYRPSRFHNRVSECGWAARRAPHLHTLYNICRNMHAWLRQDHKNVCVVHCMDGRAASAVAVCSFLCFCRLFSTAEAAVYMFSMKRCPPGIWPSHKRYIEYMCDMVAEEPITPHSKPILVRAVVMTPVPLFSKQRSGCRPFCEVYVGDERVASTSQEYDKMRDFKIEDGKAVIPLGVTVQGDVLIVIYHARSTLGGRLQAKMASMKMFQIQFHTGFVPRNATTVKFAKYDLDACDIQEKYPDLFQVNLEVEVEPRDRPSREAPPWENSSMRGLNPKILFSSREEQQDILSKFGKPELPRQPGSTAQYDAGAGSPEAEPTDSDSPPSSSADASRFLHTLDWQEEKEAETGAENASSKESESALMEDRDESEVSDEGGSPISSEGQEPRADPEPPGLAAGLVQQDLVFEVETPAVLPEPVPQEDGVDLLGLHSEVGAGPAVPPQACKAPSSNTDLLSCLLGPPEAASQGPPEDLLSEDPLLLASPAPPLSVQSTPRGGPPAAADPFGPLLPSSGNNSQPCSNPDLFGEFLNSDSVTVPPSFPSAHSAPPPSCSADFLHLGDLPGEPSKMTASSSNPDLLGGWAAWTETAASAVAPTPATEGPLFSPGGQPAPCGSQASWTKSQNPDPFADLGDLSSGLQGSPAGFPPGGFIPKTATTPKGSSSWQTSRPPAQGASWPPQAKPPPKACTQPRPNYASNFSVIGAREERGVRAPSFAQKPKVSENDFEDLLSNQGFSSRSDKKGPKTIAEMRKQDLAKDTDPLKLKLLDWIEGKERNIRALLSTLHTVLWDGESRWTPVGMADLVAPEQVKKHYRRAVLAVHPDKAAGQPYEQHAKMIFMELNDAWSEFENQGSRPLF
T6 sequence (Q8NI60 whole entry): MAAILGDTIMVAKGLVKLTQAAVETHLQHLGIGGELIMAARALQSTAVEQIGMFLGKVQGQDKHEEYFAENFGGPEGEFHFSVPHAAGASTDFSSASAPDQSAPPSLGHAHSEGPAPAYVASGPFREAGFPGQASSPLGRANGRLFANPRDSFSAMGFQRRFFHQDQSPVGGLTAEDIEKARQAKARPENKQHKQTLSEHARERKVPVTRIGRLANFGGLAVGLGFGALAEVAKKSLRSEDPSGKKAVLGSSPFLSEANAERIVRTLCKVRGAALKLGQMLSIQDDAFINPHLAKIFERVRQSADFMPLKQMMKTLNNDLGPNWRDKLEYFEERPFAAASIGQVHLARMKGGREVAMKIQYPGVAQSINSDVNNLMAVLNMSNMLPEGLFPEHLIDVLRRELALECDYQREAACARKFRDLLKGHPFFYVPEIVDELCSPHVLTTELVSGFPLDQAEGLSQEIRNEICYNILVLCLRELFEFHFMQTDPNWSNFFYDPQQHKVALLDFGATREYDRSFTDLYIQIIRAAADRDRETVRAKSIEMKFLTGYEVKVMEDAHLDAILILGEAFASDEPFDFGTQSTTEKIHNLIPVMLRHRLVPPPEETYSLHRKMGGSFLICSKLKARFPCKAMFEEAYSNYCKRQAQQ
CAMK1, sequence (Q14012 whole entry): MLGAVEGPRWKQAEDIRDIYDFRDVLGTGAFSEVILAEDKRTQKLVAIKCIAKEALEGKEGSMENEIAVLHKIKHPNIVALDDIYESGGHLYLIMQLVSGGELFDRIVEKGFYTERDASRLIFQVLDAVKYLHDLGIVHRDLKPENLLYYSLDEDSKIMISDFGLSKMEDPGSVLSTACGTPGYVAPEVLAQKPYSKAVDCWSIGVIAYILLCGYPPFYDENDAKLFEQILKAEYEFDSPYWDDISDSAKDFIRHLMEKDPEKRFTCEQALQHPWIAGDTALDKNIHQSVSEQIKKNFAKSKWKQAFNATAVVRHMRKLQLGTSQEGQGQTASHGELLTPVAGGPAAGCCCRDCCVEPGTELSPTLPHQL
EGFR(L858R,T790M), sequence (P00533 whole entry T790M/L858R): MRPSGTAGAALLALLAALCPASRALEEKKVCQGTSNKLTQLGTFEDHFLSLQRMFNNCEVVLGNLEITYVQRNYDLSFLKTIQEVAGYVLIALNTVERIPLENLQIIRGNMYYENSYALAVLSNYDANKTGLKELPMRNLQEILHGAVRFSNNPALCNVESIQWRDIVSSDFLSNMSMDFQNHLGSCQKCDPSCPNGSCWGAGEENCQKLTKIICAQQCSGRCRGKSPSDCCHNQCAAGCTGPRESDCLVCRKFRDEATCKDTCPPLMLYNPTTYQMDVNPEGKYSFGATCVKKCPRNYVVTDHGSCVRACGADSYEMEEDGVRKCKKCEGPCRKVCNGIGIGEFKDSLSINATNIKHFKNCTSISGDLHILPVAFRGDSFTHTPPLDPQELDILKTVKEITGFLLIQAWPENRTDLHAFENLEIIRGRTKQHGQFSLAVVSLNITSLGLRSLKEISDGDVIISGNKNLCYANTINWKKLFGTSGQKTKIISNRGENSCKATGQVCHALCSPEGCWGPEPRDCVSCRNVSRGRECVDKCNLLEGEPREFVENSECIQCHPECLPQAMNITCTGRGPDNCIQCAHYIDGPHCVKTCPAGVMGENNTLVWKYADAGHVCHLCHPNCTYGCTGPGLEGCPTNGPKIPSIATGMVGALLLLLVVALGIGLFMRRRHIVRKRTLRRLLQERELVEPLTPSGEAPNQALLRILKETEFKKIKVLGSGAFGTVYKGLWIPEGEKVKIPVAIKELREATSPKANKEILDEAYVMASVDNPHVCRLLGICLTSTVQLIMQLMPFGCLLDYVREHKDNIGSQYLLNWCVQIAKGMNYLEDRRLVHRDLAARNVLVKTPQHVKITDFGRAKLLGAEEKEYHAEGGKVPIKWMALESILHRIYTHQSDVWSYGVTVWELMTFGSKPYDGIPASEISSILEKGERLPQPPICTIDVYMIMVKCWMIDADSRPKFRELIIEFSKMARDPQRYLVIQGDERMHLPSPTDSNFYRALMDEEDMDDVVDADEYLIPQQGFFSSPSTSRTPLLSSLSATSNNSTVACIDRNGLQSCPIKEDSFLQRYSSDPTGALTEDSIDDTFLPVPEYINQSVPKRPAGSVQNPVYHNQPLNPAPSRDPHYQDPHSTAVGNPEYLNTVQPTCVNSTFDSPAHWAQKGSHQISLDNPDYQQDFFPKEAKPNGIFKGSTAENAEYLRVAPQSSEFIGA
T4 sequence (O95747 whole entry): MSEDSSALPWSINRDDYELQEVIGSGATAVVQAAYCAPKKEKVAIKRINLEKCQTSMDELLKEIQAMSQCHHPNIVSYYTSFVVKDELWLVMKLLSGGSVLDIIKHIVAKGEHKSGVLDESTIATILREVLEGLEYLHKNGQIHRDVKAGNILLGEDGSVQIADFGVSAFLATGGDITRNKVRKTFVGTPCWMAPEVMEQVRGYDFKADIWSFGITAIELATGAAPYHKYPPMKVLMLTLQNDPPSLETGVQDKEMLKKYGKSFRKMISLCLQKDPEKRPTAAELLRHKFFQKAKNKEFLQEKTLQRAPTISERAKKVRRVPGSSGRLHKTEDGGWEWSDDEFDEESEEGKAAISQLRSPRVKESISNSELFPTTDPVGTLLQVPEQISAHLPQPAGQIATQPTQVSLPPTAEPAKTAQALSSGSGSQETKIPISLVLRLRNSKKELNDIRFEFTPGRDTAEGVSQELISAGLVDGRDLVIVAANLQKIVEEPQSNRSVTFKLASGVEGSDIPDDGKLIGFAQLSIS
FGR, sequence (P09769 whole entry): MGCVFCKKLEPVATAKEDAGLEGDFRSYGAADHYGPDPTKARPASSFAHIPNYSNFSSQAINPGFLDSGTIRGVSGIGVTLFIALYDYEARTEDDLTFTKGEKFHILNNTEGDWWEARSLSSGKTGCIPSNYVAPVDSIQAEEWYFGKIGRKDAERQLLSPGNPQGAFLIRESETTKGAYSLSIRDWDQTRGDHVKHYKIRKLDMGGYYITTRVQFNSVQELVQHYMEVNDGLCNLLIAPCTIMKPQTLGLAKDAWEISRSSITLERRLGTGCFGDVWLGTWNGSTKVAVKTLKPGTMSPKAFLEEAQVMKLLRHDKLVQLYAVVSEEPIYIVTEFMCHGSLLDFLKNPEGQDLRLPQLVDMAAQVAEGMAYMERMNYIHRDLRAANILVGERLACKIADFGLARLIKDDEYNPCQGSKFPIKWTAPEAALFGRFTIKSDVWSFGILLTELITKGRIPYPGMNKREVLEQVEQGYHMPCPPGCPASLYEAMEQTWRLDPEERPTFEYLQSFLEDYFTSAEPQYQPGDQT
CDK3, sequence (Q00526 whole entry): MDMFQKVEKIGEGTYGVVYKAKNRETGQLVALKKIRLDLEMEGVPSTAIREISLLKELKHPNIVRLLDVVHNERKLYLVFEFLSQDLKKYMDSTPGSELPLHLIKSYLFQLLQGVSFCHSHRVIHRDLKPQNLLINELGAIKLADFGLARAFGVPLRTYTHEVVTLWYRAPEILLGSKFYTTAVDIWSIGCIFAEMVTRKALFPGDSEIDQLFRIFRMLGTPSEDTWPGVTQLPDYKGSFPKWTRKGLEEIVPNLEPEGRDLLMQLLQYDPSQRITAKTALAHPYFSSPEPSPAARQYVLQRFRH

With `Cn1c(=O)[nH]c2ccc(-c3cccc(C(=O)NC4CCn5ccnc5C4)c3)cc21` (stereo not shown) [Z36-MP5], the remaining binding at 1 µM at CDK3 turned out to be 43%; at HIPK2, 64%; on TRKB, 52%; at EGFR(L858R), 99%; at EGFR(L858R,T790M), 39%; at HUNK, 74%. Further, the remaining binding at 1 µM on FGR turned out to be 85%; on GAK it was 71%; at IKK-epsilon it was 84%; at HPK1, 83%; at SGK2, 64%; at OSR1, 73%. The remaining binding at 1 µM on GSK3B is 81%; on EGFR(G719S) it was 85%; on PDGFRB, 93%; at SIK, 81%; on ADCK3 it was 39%; at SgK110 it was 97%. The remaining binding at 1 µM at FGFR4 is 76%; at DAPK3, 89%; in assay [1] it was 67%; on CAMK1, 91%.
